Laboratory results as given in the supplement of paper PMC13207355.

Experiments:
Conditions in all cases: exposure time: 72 h
[1] = test system: FT3469 (normal neural stem cell line); assay: phenotypic distance (Euclidean, principal components) from DMSO controls (arbitrary units); higher = stronger morphological change
[2] = test system: E28 (patient-derived glioblastoma stem cells of classical subtype); assay: as above
[3] = test system: E57 (patient-derived glioblastoma stem cells of mesenchymal subtype); assay: as above
[4] = test system: E31 (patient-derived glioblastoma stem cells of proneural subtype); assay: as above
[5] = test system: E34 (patient-derived glioblastoma stem cells of proneural subtype); assay: as above
[6] = test system: E21 (patient-derived glioblastoma stem cells of mesenchymal subtype); assay: as above
[7] = test system: E13 (patient-derived glioblastoma stem cells of classical subtype); assay: as above
[8] = test system: FT3469; assay: surviving fraction (nuclei count normalised to DMSO); higher = more cells surviving (less toxic)
[9] = test system: E28; assay: as above
[10] = test system: E57; assay: as above
[11] = test system: E31; assay: as above
[12] = test system: E34; assay: as above
[13] = test system: E21; assay: as above
[14] = test system: E13; assay: as above
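Wherever phenotypic distance (Euclidean, principal components) from DMSO controls is given: cell Painting imaging in 384-well plates, CellProfiler features reduced to at least 20 principal components, Euclidean distance versus same-plate DMSO vehicle wells (0.1% v/v), median over six images per well.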
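Wherever surviving fraction (nuclei count normalised to DMSO) is given: nuclei counted by high-content imaging of Hoechst-stained cells in laminin-coated 384-well plates, relative to 0.1% DMSO vehicle wells, with staurosporine as cell-death control.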

`CC1(C)S[C@@H]2[C@H](NC(=O)Cc3ccccc3)C(=O)N2[C@H]1C(=O)O` [Benzylpenicillin sodium] showed a phenotypic distance ([1]; 4.1 nM) of 0.569, a phenotypic distance ([1]; 12.3 nM) of 0.961 and a phenotypic distance ([1]; 37 nM) of 1.12. It also gave a phenotypic distance ([1]; 111.1 nM) of 0.565, a phenotypic distance ([1]; 333.3 nM) of 0.741 and a phenotypic distance ([1]; 1000 nM) of 0.951. The phenotypic distance ([1]; 3000 nM) was 1.77, the phenotypic distance ([2]; 4.1 nM) was 0.78 and the phenotypic distance ([2]; 12.3 nM) was 0.57. The phenotypic distance ([2]; 37 nM) was 0.958, the phenotypic distance ([2]; 111.1 nM) was 0.61 and the phenotypic distance ([2]; 333.3 nM) was 0.635. The phenotypic distance ([2]; 1000 nM) was 0.605, the phenotypic distance ([2]; 3000 nM) was 1.19 and the phenotypic distance ([3]; 4.1 nM) was 0.898. It also gave a phenotypic distance ([3]; 12.3 nM) of 0.449, a phenotypic distance ([3]; 37 nM) of 0.995 and a phenotypic distance ([3]; 111.1 nM) of 0.845. It also gave a phenotypic distance ([3]; 333.3 nM) of 1.07, a phenotypic distance ([3]; 1000 nM) of 0.999 and a phenotypic distance ([3]; 3000 nM) of 1.39. For the same compound, the phenotypic distance ([4]; 4.1 nM) was 0.966, the phenotypic distance ([4]; 12.3 nM) was 0.585 and the phenotypic distance ([4]; 37 nM) was 0.478. The phenotypic distance ([4]; 111.1 nM) was 0.839, the phenotypic distance ([4]; 333.3 nM) was 1.16 and the phenotypic distance ([4]; 1000 nM) was 0.685. It also gave a phenotypic distance ([4]; 3000 nM) of 1.21, a phenotypic distance ([5]; 4.1 nM) of 0.752 and a phenotypic distance ([5]; 12.3 nM) of 0.424. For the same compound, the phenotypic distance ([5]; 37 nM) was 0.561, the phenotypic distance ([5]; 111.1 nM) was 0.473 and the phenotypic distance ([5]; 333.3 nM) was 0.826. The phenotypic distance ([5]; 1000 nM) was 0.717, the phenotypic distance ([5]; 3000 nM) was 1.48 and the phenotypic distance ([6]; 4.1 nM) was 0.889. It also gave a phenotypic distance ([6]; 12.3 nM) of 0.821, a phenotypic distance ([6]; 37 nM) of 0.791 and a phenotypic distance ([6]; 111.1 nM) of 0.688. It also gave a phenotypic distance ([6]; 333.3 nM) of 4.43, a phenotypic distance ([6]; 1000 nM) of 1.31 and a phenotypic distance ([6]; 3000 nM) of 0.858. The phenotypic distance ([7]; 4.1 nM) was 0.664, the phenotypic distance ([7]; 12.3 nM) was 1.03 and the phenotypic distance ([7]; 37 nM) was 0.438. For the same compound, the phenotypic distance ([7]; 111.1 nM) was 0.926, the phenotypic distance ([7]; 333.3 nM) was 0.678 and the phenotypic distance ([7]; 1000 nM) was 1.04. For the same compound, the phenotypic distance ([7]; 3000 nM) was 0.985, the surviving fraction ([8]; 4.1 nM) was 1.05 and the surviving fraction ([8]; 12.3 nM) was 1.29. The surviving fraction ([8]; 37 nM) was 1.05, the surviving fraction ([8]; 111.1 nM) was 1.18 and the surviving fraction ([8]; 333.3 nM) was 0.99. It also gave a surviving fraction ([8]; 1000 nM) of 1.27, a surviving fraction ([8]; 3000 nM) of 1.12 and a surviving fraction ([9]; 4.1 nM) of 1.28. For the same compound, the surviving fraction ([9]; 12.3 nM) was 1.09, the surviving fraction ([9]; 37 nM) was 1.38 and the surviving fraction ([9]; 111.1 nM) was 0.946. The surviving fraction ([9]; 333.3 nM) was 1.14, the surviving fraction ([9]; 1000 nM) was 1.12 and the surviving fraction ([9]; 3000 nM) was 0.901. The surviving fraction ([10]; 4.1 nM) was 1.03, the surviving fraction ([10]; 12.3 nM) was 0.993 and the surviving fraction ([10]; 37 nM) was 1. For the same compound, the surviving fraction ([10]; 111.1 nM) was 1.01, the surviving fraction ([10]; 333.3 nM) was 1.04 and the surviving fraction ([10]; 1000 nM) was 0.87. The surviving fraction ([10]; 3000 nM) was 0.922, the surviving fraction ([11]; 4.1 nM) was 1.03 and the surviving fraction ([11]; 12.3 nM) was 0.949. It also gave a surviving fraction ([11]; 37 nM) of 1.1, a surviving fraction ([11]; 111.1 nM) of 1.03 and a surviving fraction ([11]; 333.3 nM) of 1.1. The surviving fraction ([11]; 1000 nM) was 0.947, the surviving fraction ([11]; 3000 nM) was 0.879 and the surviving fraction ([12]; 4.1 nM) was 1.11. For the same compound, the surviving fraction ([12]; 12.3 nM) was 0.981, the surviving fraction ([12]; 37 nM) was 1.02 and the surviving fraction ([12]; 111.1 nM) was 1.02. The surviving fraction ([12]; 333.3 nM) was 0.906, the surviving fraction ([12]; 1000 nM) was 0.865 and the surviving fraction ([12]; 3000 nM) was 0.864. For the same compound, the surviving fraction ([13]; 4.1 nM) was 1.06, the surviving fraction ([13]; 12.3 nM) was 1.11 and the surviving fraction ([13]; 37 nM) was 1.03. The surviving fraction ([13]; 111.1 nM) was 1.04, the surviving fraction ([13]; 333.3 nM) was 0.968 and the surviving fraction ([13]; 1000 nM) was 1.14. The surviving fraction ([13]; 3000 nM) was 0.993, the surviving fraction ([14]; 4.1 nM) was 1.1 and the surviving fraction ([14]; 12.3 nM) was 1.14. The surviving fraction ([14]; 37 nM) was 1.07, the surviving fraction ([14]; 111.1 nM) was 1.17 and the surviving fraction ([14]; 333.3 nM) was 1.06. The surviving fraction ([14]; 1000 nM) was 1.06 and the surviving fraction ([14]; 3000 nM) was 1.08.
